Among the data in ChEMBL document CHEMBL1141629, “Kinase-likeness and kinase-privileged fragments: toward virtual polypharmacology” (J Med Chem, 2008) are inhibition and IC50 values, retold here.

As a reminder, the inhibition is the change of the read-out against control, counted positive when it falls. A higher inhibition goes with strong suppression. In general, IC50 refers to the concentration needed to halve the response being measured. A high value points to a need for much substance.

T1 sequence (Q13153 whole entry): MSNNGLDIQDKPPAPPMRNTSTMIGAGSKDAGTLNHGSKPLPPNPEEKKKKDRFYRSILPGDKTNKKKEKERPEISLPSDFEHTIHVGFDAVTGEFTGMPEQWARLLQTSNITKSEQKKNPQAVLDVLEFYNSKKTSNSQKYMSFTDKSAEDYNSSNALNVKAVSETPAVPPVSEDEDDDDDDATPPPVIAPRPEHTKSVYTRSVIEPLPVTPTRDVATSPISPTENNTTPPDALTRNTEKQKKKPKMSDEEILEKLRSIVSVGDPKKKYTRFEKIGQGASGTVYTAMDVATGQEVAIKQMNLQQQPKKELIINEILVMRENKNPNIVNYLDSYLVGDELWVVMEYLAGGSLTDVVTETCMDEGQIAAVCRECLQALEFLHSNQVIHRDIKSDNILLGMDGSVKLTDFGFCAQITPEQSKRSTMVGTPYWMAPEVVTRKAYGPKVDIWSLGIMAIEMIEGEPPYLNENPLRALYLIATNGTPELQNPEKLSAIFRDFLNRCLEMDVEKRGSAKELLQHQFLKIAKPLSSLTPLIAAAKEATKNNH

One test addresses T1, Serine/threonine-protein kinase PAK 1 (Homo sapiens, UniProt Q13153). Nature of the test: Inhibition of PAK1 at 31 uM.
`Nc1nc(N)c2nc(-c3ccccc3)c(N)nc2n1` registered an inhibition of 100%.
On to `Nc1nc2[nH]cnc2c(=S)[nH]1`, for which the inhibition came out at 31%.

In a further test the target is Ribosomal protein S6 kinase beta-1 (Homo sapiens) (UniProt P23443). Description: Inhibition of p70S6K at 33 uM.
Sequence of Ribosomal protein S6 kinase beta-1 (Homo sapiens) (P23443 whole entry, looked up): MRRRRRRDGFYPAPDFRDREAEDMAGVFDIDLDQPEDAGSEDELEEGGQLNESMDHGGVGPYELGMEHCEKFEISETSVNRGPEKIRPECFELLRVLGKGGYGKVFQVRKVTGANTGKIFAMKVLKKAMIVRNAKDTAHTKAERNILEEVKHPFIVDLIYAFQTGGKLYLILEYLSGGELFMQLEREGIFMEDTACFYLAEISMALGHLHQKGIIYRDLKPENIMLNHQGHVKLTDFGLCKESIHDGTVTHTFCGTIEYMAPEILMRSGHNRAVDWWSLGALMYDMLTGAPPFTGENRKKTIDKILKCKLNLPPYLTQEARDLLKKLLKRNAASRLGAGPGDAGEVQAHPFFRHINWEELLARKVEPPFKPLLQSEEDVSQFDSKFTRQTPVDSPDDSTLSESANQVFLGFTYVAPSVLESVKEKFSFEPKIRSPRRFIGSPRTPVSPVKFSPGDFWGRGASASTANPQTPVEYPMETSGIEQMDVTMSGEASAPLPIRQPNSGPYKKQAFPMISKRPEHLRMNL
`COc1c2occc2cc2ccc(=O)oc12` had an inhibition of 64%.
For the molecule `Nc1nc(N)c2nc(-c3ccccc3)c(N)nc2n1`, the inhibition is 95%.

The target of the next test is T1, Serine/threonine-protein kinase PAK 1. Description: Inhibition of PAK1.
In turn, `CCCCCSc1ncnc2nc[nH]c12` gave a half-inhibitory concentration (IC50) of 38 µM.
`CC1CC(Nc2ncnc3nc[nH]c23)CC(C)(C)C1` (configuration not stated): the IC50 was found to be 23 µM.
As for `c1nc(NC2CCCC2)c2nc[nH]c2n1`, the IC50 is 18 µM.
Take `c1nc2nc(NC3CCCCC3)ncc2[nH]1`: the IC50 was determined as 31 µM.
`CC(Sc1ncnc2nc[nH]c12)c1ccccc1Cl` (configuration not stated) registered an IC50 of 23 µM.
The same measure, in the same setting: as for `c1nc(N2CCOCC2)c2nc[nH]c2n1`, the figure is 18 µM.

In another test the target is T2, Serine/threonine-protein kinase Sgk1 (Homo sapiens) (UniProt O00141).
T2 sequence (whole entry): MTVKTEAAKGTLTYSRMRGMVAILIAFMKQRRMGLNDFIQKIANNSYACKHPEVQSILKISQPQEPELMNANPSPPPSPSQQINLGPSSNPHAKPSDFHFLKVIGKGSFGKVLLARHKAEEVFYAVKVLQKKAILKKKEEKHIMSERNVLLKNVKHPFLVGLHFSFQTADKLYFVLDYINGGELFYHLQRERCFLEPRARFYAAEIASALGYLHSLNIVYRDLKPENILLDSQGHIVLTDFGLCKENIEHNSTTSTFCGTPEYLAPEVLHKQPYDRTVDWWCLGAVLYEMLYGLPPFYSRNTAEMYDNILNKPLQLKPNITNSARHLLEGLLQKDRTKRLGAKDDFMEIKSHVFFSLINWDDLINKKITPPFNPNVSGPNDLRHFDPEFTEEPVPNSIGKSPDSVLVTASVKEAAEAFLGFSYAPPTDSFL
Description: Inhibition of SGK1 at 33 uM.
`O=C(O)c1cc(/N=N/c2ccc(S(=O)(=O)Nc3ccccn3)cc2)ccc1O` returned an inhibition of 70%.
The same measure, in the same setting: with `Nc1nc(N)c2nc(-c3ccccc3)c(N)nc2n1` the figure was 94%.
